The values that follow come from article PMC10287669, “[1,2,4]triazolo[3,4-b][1,3,4]thiadiazole derivatives as new therapeutic candidates against urease positive microorganisms: design, synthesis, pharmacological evaluations, and in silico studies” (Scientific Reports, 2023).

SMILES strings stand for the structures. Values after ≈ are worked out from the molar mass of the structure shown.

The test system of one series is C. neoformans (H99). The series can be described thus: Anti-ureolytic activity, colorimetric urea broth microdilution. The format is cell-based, Cryptococcus neoformans. The settings on record: Cryptococcus neoformans, 72 h, read-out: urease inhibitory activity IC50 (µg/mL) ± SD, C. neoformans; read after three days; means ± SD of 3 independent experiments. How it is done:
(§1) The colorimetric microdilution technique using urea broth media (Merck) was used to examine the ureolytic activity of C. neoformans (H99), and clinical isolate of P. mirabilis treated with tested substances (supplemented with glucose; pH = 6 for C. neoformans). Compounds in the concentration range of 1 to 512 μg/mL were exposed to ureolytic microorganisms, and the color of the medium was evaluated visually and spectroscopically at 560 nm after three days for C. neoformans and 24 h for P. mirabilis. The positive control, which included ureolytic bacteria but no drugs, changed color from yellow to dark pink or magenta. This shifts, allowing the determination of the inhibitory activity of compounds against the urease activity of organisms even without a microliter plate reader[45],[46].

The next series has as its target urease (Canavalia ensiformis, UniProt P07374). The series can be described thus: Kinetic study of urease inhibition (Lineweaver–Burk). The format is biochemical, Jack bean. How it is done:
The kinetic study for the inhibition of urease by compound 6a was carried out using four different concentrations of inhibitor. Compound 6a was tested at […] concentrations against urease for the kinetic study. The Lineweaver–Burk reciprocal plot was constructed by plotting 1/V against 1/[S] at variable concentrations of the substrate urea (3.12 to 100 mM). The inhibition constant Ki was calculated by the plot of slopes versus the corresponding concentrations of compound 6a.

A further series deals with P. mirabilis. The series is described as follows: Anti-ureolytic activity, colorimetric urea broth microdilution. The format is cell-based, Proteus mirabilis. The settings on record: Proteus mirabilis, read after 24 h, means ± SD of 3 independent experiments, read-out: urease inhibitory activity IC50 (µg/mL) ± SD. How it is done: as §1
In the next series the target is Jack bean urease (Canavalia ensiformis, UniProt P07374). The series can be described thus: Screening of urease inhibitory activities (indophenol method, enzymatic). The format is biochemical. The procedure: Urease inhibition effects of the synthesized compounds were determined according to the previously reported procedure[37]–[39]. Briefly, 100 μL of the synthesized compounds at different concentrations was added to 850 μL of urea as substrate and 50 μL urease (3 mg/mL) in phosphate buffer, pH = 7.4). After 30 min, to 100 μL of the incubated solution, 500 μL of solution I (5.0 g phenol and 25.0 mg sodium nitroprusside in 500 mL water) was added, followed by the addition of 500 μL of solution II (2.5 g sodium hydroxide, 4.2 mL sodium hypochlorite, and 5% chlorine in 500 mL water) which was further incubated at 37 °C for 30 min. The absorbance of blue-colored indophenol of each cell is related to the percentage of enzyme inhibition using the following equation at 625 nm. The IC50 values for all synthesized compounds were calculated using GraphPad Prism software (GraphPad Software, Inc., San Diego, CA).

The next series deals with Proteus mirabilis. The series can be described thus: In vitro antimicrobial activity, CLSI microbroth dilution (bacteria). The format is cell-based. The settings on record: clinical isolate, read-out: MIC. The procedure: M27-A3 for yeasts). The compounds were diluted, and stock solutions of 20 mg/mL in DMSO were prepared. Mueller-Hinton Broth (HiMedia) and RPMI-1640 (Sigma) were prepared as recommended for antimicrobial susceptibility testing of bacterial and fungal strains, respectively. Two-fold dilutions were made in the range of 1-512 μg/mL for tested compounds. […] All experiments were performed in duplicates.
(In general: Dilution methods test growth across graded concentrations, often in twofold steps.)

Series [1] has as its system Cryptococcus neoformans (H99). The series can be described thus: In vitro antimicrobial activity, CLSI microbroth dilution (yeast). The format is cell-based. The settings on record: read-out: MIC. How it is done:
The antimicrobial activities of all derivatives against C. neoformans (H99), and clinical isolate of P. mirabilisas urease positive microorganism, were tested as recommended by the Clinical and Laboratory Standards Institute (CLSI) (M07-A9 for bacteria; M27-A3 for yeasts). The compounds were diluted, and stock solutions of 20 mg/mL in DMSO were prepared. Mueller–Hinton Broth (HiMedia) and RPMI-1640 (Sigma) were prepared as recommended for antimicrobial susceptibility testing of bacterial and fungal strains, respectively. Two-fold dilutions were made in the range of 1–512 μg/mL for tested compounds. The microbroth dilution test was accomplished using a 96-well microtiter plate containing growth control (drug free wellls) and sterility control (only broth media). The antimicrobial susceptibility test was accomplished by adding a cell suspension adjusted to the 0.5 McFarland standard (1–2 × 10^8 CFU/mL for bacterial strains; 1–5 × 10^6 cells/mL for yeast) to different concentrations of tested compounds. […] All experiments were performed in duplicates.

As usually defined, the Ki is a measure of affinity in units of concentration, obtained from inhibition or displacement. A high value points to weaker binding. The term MIC denotes the least concentration at which growth counts as inhibited. One may read the melting point as the temperature of the solid-liquid transition.

Jack bean urease, sequence (P07374 whole entry, looked up): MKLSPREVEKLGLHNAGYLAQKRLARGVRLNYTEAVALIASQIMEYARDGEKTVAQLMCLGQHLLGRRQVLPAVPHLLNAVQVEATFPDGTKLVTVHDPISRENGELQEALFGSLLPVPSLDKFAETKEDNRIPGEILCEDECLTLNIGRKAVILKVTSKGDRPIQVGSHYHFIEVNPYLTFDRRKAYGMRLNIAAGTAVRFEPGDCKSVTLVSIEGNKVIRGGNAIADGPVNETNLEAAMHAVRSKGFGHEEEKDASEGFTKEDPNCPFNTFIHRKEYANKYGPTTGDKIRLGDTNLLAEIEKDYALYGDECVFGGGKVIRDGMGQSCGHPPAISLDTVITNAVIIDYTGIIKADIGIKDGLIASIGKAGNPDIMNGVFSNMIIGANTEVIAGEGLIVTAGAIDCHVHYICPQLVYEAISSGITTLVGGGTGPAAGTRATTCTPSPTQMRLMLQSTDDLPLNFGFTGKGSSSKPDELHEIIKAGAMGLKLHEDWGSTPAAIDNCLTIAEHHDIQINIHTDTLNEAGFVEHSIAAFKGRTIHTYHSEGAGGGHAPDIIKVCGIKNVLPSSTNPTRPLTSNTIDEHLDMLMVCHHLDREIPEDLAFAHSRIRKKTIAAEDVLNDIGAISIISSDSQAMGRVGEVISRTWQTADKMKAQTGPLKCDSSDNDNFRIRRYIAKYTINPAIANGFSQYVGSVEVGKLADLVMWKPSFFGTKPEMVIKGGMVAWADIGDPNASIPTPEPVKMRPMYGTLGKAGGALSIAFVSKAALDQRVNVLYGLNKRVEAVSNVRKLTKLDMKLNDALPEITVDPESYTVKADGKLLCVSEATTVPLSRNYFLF
urease, sequence (P07374 whole entry, looked up): as above

The compound `c1ccc(CSc2nn3c(-c4ccccc4)nnc3s2)cc1` [Compound 6a, 6-(benzylthio)-3-phenyl-[1,2,4]triazolo[3,4-b][1,3,4]thiadiazole] showed a melting point of 217 to 219 °C. The IC50 in the series on C. neoformans (H99) was over 124 µg/mL. Also, the affinity at urease, expressed as Ki, was 1370 nM. Further, the type of inhibition entry on urease (Lineweaver–Burk plot) was “competitive”. Also, the IC50 in the series on P. mirabilis was determined as 78.2 ± 8.5 µg/mL (≈ 241 µM). The compound further registered an IC50 on Jack bean urease of 870 ± 90 nM. Moreover, the “improvement in the activity vs positive control” value at Jack bean urease (vs thiourea) is recorded as “around 27 times”. Moreover, the MIC in the series on Proteus mirabilis came to 256 µg/mL (≈ 789 µM). In addition, the MIC in series [1] is over 256 µg/mL.
